Where two headings read alike, the source gives them in different places.
Experiments:
Epac2^Δ280 = target: T1, Epac2^Δ280 (Mus musculus, UniProt Q9EQZ6); assay: Epac activation assay (Rap1B•mGDP fluorescence nucleotide exchange), Epac2^Δ280; assay type: biochemical; details: Epac2^Δ280; for Rel. kmax: maximal activity relative to cAMP
T1 construct: made in house
T1 sequence (Q9EQZ6 281-993 isoform Q9EQZ6-3): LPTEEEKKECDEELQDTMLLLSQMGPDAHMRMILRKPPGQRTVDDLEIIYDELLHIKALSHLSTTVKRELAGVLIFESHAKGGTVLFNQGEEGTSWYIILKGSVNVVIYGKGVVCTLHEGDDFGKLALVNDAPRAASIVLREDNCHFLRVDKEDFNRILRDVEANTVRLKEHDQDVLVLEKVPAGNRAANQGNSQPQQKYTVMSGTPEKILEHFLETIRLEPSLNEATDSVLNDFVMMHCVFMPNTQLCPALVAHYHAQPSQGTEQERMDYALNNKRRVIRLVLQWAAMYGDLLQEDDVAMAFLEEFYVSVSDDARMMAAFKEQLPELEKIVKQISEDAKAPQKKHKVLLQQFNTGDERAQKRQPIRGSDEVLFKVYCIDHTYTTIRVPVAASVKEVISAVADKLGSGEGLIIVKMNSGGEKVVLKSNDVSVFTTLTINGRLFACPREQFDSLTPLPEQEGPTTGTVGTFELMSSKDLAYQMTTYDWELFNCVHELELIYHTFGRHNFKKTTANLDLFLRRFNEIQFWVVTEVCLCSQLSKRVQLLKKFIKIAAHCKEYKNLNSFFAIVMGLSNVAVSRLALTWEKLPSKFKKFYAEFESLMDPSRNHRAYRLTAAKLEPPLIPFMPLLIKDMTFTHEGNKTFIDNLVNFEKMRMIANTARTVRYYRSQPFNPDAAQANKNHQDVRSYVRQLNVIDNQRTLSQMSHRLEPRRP
Method: (§1) Murine Epac2 was used as all previous structural studies were performed with it.
(§2) The activity of Epac was determined by a fluorescence assay. […] The fluorescence intensity of Rap1B•mGDP is approximately twice that of free mGDP, and thus, nucleotide exchange can be observed as a decay in fluorescence upon the addition of excess unlabeled GDP.

Epac1 [1] = target: T2, Epac1 (Homo sapiens, UniProt O95398); design: method as in PMID 12888551; details: footnote c, see also ref 13; cited from earlier work
T2 construct: made in house
T2 sequence (O95398 150-881 isoform O95398-3): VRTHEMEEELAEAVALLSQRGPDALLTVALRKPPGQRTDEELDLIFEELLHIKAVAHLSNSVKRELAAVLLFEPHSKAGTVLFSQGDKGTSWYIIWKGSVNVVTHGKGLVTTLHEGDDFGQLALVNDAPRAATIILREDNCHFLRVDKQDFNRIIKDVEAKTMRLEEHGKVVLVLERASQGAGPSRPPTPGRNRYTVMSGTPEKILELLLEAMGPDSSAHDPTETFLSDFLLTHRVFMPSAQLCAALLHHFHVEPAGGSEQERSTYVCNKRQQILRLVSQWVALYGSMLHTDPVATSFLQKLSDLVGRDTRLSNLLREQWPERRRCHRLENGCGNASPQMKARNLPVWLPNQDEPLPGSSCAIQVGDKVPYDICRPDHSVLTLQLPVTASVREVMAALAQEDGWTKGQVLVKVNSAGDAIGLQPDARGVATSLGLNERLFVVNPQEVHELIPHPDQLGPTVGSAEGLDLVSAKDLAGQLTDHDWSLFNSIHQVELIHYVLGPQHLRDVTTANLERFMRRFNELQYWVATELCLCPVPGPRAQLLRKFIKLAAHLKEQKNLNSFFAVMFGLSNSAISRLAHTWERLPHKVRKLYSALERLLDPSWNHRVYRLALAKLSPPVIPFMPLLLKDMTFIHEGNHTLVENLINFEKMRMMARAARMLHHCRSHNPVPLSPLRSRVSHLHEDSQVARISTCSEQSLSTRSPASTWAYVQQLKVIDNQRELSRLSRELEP

Epac2^fl = target: T3, Epac2^fl (Mus musculus, UniProt Q9EQZ6); assay: Epac activation assay, full length Epac2; assay type: biochemical; design: made in house; details: Epac2^fl; for Rel. kmax: maximal activity relative to cAMP
T3 sequence (Q9EQZ6 1-993 isoform Q9EQZ6-3): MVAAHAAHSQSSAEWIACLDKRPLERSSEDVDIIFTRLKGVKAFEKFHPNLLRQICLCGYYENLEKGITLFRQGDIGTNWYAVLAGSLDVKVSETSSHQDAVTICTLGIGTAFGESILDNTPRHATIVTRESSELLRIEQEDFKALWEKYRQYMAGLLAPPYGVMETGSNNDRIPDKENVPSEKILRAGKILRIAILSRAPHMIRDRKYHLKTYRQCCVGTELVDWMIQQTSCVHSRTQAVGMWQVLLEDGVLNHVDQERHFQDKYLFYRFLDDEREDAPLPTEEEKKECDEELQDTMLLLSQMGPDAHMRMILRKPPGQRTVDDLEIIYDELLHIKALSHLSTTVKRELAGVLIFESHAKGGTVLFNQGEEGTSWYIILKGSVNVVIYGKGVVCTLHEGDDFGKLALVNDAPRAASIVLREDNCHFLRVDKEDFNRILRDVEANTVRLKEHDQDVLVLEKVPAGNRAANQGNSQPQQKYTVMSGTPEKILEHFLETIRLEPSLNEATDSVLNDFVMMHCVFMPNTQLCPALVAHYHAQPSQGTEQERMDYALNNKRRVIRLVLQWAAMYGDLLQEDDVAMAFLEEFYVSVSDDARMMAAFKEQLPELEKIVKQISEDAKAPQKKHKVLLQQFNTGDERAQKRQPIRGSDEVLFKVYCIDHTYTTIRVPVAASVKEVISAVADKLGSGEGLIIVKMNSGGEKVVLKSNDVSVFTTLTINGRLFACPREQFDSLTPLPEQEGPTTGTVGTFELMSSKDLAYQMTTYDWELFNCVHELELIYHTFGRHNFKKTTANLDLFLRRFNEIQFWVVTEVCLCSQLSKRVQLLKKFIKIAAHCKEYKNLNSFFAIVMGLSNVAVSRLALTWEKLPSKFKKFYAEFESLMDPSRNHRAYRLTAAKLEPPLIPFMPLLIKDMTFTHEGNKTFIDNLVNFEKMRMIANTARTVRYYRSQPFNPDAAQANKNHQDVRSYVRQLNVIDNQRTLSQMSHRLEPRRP
Method: as §1, §2

Epac1 [2] = target: T2, Epac1; assay: Epac activation assay, Epac1; assay type: biochemical; details: Epac1; for Rel. kmax: maximal activity relative to cAMP

Compound | AC50 (Epac2^Δ280) [µM] | Rel. kmax (Epac2^Δ280) | AC50 (Epac1 [1]) [µM] | Rel. kmax (Epac1 [1]) | AC50 (Epac2^fl) [µM] | AC50 (Epac1 [2]) [µM] | Rel. kmax (Epac1 [2]) | Rel. kmax (Epac2^fl)
Nc1ncnc2c1ncn2[C@H]1C[C@@H]2OP(=O)(O)OC[C@H]2O1 [Z-001, 2′-dcAMP] | 70 | 1.4 | > 1000 |  |  |  |  | 
CO[C@H]1C2OP(=O)(O)OC[C@H]2O[C@H]1n1cnc2c(N)ncnc21 (some centres unmarked) [Z-004, 2′-O-Me-cAMP] | 32 | 1.0 | > 100 |  |  |  |  | 
Nc1ncnc2c1nc(N1CCCCC1)n2[C@@H]1O[C@@H]2COP(=O)(O)O[C@H]2[C@H]1O [L-018, 8-PIP-cAMP] | 13 | 3.8 | 130 | 0.9^c |  |  |  | 
Nc1ncnc2c1nc(Cl)n2[C@@H]1O[C@@H]2COP(=O)(O)O[C@H]2[C@H]1O [L-001, 8-Cl-cAMP] | 0.3 | 0.8 | 6.9 | 0.5^c |  |  |  | 
CO[C@H]1C2OP(O)(=S)OC[C@H]2O[C@H]1n1c(Br)nc2c(N)ncnc21 (some centres unmarked) [S-014, Sp-8-Br-2′-O-Me-cAMPS] | 13 | 2.0 |  |  | > 80 |  |  | 
Nc1ncnc2c1nc(Br)n2[C@@H]1O[C@@H]2COP(O)(=S)O[C@@H]2C1O (some centres unmarked) [S-010, Sp-8-Br-cAMPS] | 0.4 | 3.5 |  |  | 8 | 16 | 1.0 | 3.6
Nc1ncnc2c1nc(Br)n2[C@@H]1O[C@@H]2COP(=O)(O)O[C@H]2[C@H]1O [L-002, 8-Br-cAMP] | 0.4 | 0.9 | 6.2 | 0.5^c |  |  |  | 
Nc1ncnc2c1nc(SCc1ccccc1)n2[C@@H]1O[C@@H]2CO[P@](O)(=S)O[C@H]2[C@H]1F [S-222, Sp-8-BnT-2′-F-cAMPS] | 4.3 | 4.2 |  |  | 15 | 60 | 0.09 | 1.8
CNc1nc2c(N)ncnc2n1[C@@H]1O[C@@H]2COP(=O)(O)O[C@H]2[C@H]1O [L-005, 8-MeA-cAMP] | 0.6 | 3.3 | 19 | 0.5^c |  |  |  | 
Nc1ncnc2c1[nH]c(=O)n2C1OC2COP(=O)(O)OC2C1O [L-021, 8-OH-cAMP] | 0.6 | 0.4 | 26 | 0.5^c |  |  |  | 
CSc1nc2c(N)ncnc2n1[C@@H]1O[C@@H]2COP(=O)(O)O[C@H]2[C@H]1SC [D-002, 8,2′-DMeT-cAMP] | 2.6 | 2.0 |  |  | 110 | 17 | 1.4 | 2.4
CNc1nc2c(N)ncnc2n1[C@@H]1O[C@@H]2CO[P@](O)(=S)O[C@H]2[C@H]1O [S-030, Sp-8-MeA-cAMPS] | 0.7 | 8.4 |  |  | 10 | 30 | 1.4 | 7.7
